The test system of data set [1] is HCVcc (Jc1/JFH genotype 2a). It counts as cell-based, hepatitis C virus.
A short description of data set [2]: MTS cytotoxicity alongside the Huh7-J20 SEAP assay. The following applies: human, Huh7-J20 cells.
For the next data set, the system named is influenza A virus. The following applies: cited from earlier work; for antiviral activity against influenza A virus: among compounds 1–9.
Data set [3] relates to HCV replication (Huh7-J17 replicon cell line). As to the kind of experiment: HCV replicon luciferase assay in Huh7-J17 cells. The following applies: 72 h; for effect on HCV replication process (luciferase activity): Huh7-J17 replicon cells, different doses. (Replicon systems follow genome replication, usually without infectious particles.)
Another data set deals with HCVcc. The experiment in a line: HCVcc dose-response SEAP reporter assay in Huh7-J20 cells. The following applies: for IC50: Hepatitis C virus, Huh7-J20, 72 h; for selectivity index (SI), CC50/IC50 ratio: Huh7-J20 cells, HCVcc. On the technique in general: A reporter such as luciferase makes a cellular process visible.
The next data set deals with HCV E2 glycoprotein. As to the kind of experiment: Western blot of E2 glycoprotein accumulation in transfected HEK293T cells. The following applies: anti-E2 MAb AP33, 48 h post transfection. (A western blot detects proteins with antibodies after separation by electrophoresis.)
A further data set can be described thus: in vitro. The following applies: human, CC50, Huh-7.5 cells, MTS assay, 72 h.
Data set [4] concerns HCVpp. The following applies: 50 μM, added to HEK-293T producer cells; luciferase in infected Huh-7.5 cells.
Data set [5] has as its system classical swine fever virus. The following applies: cited from earlier work.
Data set [6] deals with HCVpp. The experiment in a line: microbe, parasite or virus in culture. The following applies: Hepatitis C virus, read-out: inhibition of infection (HCVpp).

Data on 12 compounds can be found in article PMC6099588.

Some results are limits rather than exact numbers.

As for `CC(=O)O[C@H]1[C@H](C)O[C@H](OC[C@H]2O[C@@H](n3ccc(=O)n(C(=O)c4ccccc4)c3=O)[C@@H]3OC(C)(C)O[C@@H]32)C[C@@H]1O[Si](C)(C)C(C)(C)C` [Compound 2], in [1], the “anti-HCV activity (reduction of pseudoplaques)” value is “high antiviral activity”. Also, the CC50 in data set [2] worked out at 113 µM; in “in vitro”, 119 µM. Moreover, in the data set on influenza A virus, the “antiviral activity against influenza A virus” value is “most active”. Moreover, the “effect on HCV replication process (luciferase activity)” value in data set [3] is listed as “no effect on HCV replication process”. The compound also gave a concentration for half-maximal inhibition (IC50) with HCVcc of 8.9 µM. In the data set on HCVcc, the “selectivity index (SI), CC50/IC50 ratio” value was found to be 12.7. Moreover, in the data set with HCV E2 glycoprotein, the “accumulation of E2 glycoprotein in HEK293T cells” value is “no change in the accumulation”. Further, the “reduction of HCVpp production and/or infectivity relative to DMSO control” value in the data set with HCVpp [4] was “about 80%”.

Consider `CC1(C)O[C@@H]2[C@H](O1)[C@@H](CO[C@@H]1C[C@@H](OCc3ccccc3)[C@H](OCc3ccccc3)[C@@H](CO)O1)O[C@H]2n1ccc(=O)n(C(=O)c2ccccc2)c1=O` [IW7], for which, in the data set with influenza A virus, the “ability to inhibit influenza A virus” value is on record as “most active”. In addition, in data set [5], the “ability to inhibit classical swine fever virus” value is “most active”.

With `CC1(C)O[C@@H]2[C@H](O1)[C@@H](CO[C@@H]1C[C@@H](OCc3ccccc3)[C@H](OCc3ccccc3)[C@@H](COCc3ccccc3)O1)O[C@H]2n1ccc(=O)[nH]c1=O` [Compound 3], the “anti-HCV activity (reduction of pseudoplaques)” value in data set [1] was “minor anti-HCV activity”. It took 89 µM to reach half-maximal cytotoxicity in “in vitro” (CC50).

With `CC(=O)OC[C@H]1O[C@H](OC[C@H]2O[C@@H](n3ccc(=O)[nH]c3=O)[C@@H]3OC(C)(C)O[C@@H]32)C[C@@H](OC(C)=O)[C@@H]1OC(C)=O` [Compound 6], in data set [1], the “anti-HCV activity (reduction of pseudoplaques)” value was “no obvious anti-HCV activity”. In addition, the half-maximal cytotoxic concentration (CC50) in “in vitro” is 210 µM.

Consider `CC(=O)OC[C@H]1O[C@H](OC[C@H]2O[C@@H](n3ccc(=O)n(Cc4ccccc4)c3=O)[C@@H]3OC(C)(C)O[C@@H]32)C[C@@H](OC(C)=O)[C@@H]1OC(C)=O` [Compound 8], for which the “anti-HCV activity (reduction of pseudoplaques)” value in data set [1] is on record as “minor anti-HCV activity”. The compound further displayed a CC50 in “in vitro” of 223 µM.

Consider `CC1(C)O[C@@H]2[C@H](O1)[C@@H](CO[C@@H]1C[C@@H](OCc3ccccc3)[C@H](OCc3ccccc3)[C@@H](COCc3ccccc3)O1)O[C@H]2n1ccc(=O)n(C(=O)c2ccccc2)c1=O` [Compound 4], for which, in [1], the “anti-HCV activity (reduction of pseudoplaques)” value is recorded as “high antiviral activity”. In data set [2], this compound returned a CC50 of 142 µM. Further, the “antiviral activity against influenza A virus” value in the data set with influenza A virus was “most active”. In addition, the “effect on HCV replication process (luciferase activity)” value in data set [3] is “no effect on HCV replication process”. In the data set on HCVcc, half-maximal inhibition (IC50) required 2.1 µM and the “selectivity index (SI), CC50/IC50 ratio” value is on record as 67.6. For the same compound, in the data set on HCV E2 glycoprotein, the “accumulation of E2 glycoprotein in HEK293T cells” value is reported as “no change in the accumulation”. Besides, it took 151 µM to reach half-maximal cytotoxicity in “in vitro” (CC50). In the data set on HCVpp [4], the “reduction of HCVpp production and/or infectivity relative to DMSO control” value is “about 80%”.

Turning to `CC(=O)O[C@H]1[C@H](C)O[C@H](OC[C@H]2O[C@@H](n3ccc(=O)[nH]c3=O)[C@@H]3OC(C)(C)O[C@@H]32)C[C@@H]1O[Si](C)(C)C(C)(C)C` [Compound 1], the “anti-HCV activity (reduction of pseudoplaques)” value in [1] was “no obvious anti-HCV activity”. In addition, the CC50 in “in vitro” was determined as 85 µM.

For the compound `CC1(C)O[C@@H]2[C@H](O1)[C@@H](CO[C@@H]1C[C@@H](OCc3ccccc3)[C@H](OCc3ccccc3)[C@@H](CO[Si](C)(C)C(C)(C)C)O1)O[C@H]2n1ccc(=O)n(C(=O)c2ccccc2)c1=O` [IW3], the “ability to inhibit influenza A virus” value with influenza A virus is “most active”. The “ability to inhibit classical swine fever virus” value in data set [5] is listed as “most active”.

Regarding `CC1(C)O[C@@H]2[C@H](O1)[C@@H](CO[C@@H]1C[C@@H](OCc3ccccc3)[C@H](OCc3ccccc3)[C@@H](CO[Si](C)(C)C(C)(C)C)O1)O[C@H]2n1ccc(=O)[nH]c1=O` [Compound 5], the “anti-HCV activity (reduction of pseudoplaques)” value in data set [1] was “no obvious anti-HCV activity”. For the same compound, in “in vitro”, it took 83 µM to reach half-maximal cytotoxicity (CC50).

`CC(=O)N[C@H]1[C@@H](O[C@@H]2O[C@H](C[C@@H](O)[C@H]3O[C@@H](n4ccc(=O)[nH]c4=O)[C@H](O)[C@@H]3O)[C@H](O)[C@H](O)[C@H]2NC(=O)/C=C/CCCCCCCCCC(C)C)O[C@H](CO)[C@@H](O)[C@@H]1O` [Tunicamycin]: the inhibition at 5 µM in the data set with HCVpp [6] was more than 80%.

With `O=c1ccn([C@@H]2O[C@H](CO[C@@H]3C[C@@H](O)[C@H](O)[C@@H](CO)O3)[C@@H](O)[C@H]2O)c(=O)[nH]1` [Compound 9], the “anti-HCV activity (reduction of pseudoplaques)” value in [1] is given as “minor anti-HCV activity”. It took 245 µM to reach half-maximal cytotoxicity in “in vitro” (CC50).

`CC(C)OC(=O)[C@H](C)N[P@](=O)(OC[C@H]1O[C@@H](n2ccc(=O)[nH]c2=O)[C@](C)(F)[C@@H]1O)Oc1ccccc1` [Sofosbuvir, reference compound]: the figures for the IC50 (in [3] (Hepatitis C virus); in the data set with HCVcc) were 0.028 µM and 0.26 µM, respectively. Further, the “selectivity index (SI), CC50/IC50 ratio” value in the data set on HCVcc is listed as “about 120”.

In general, CC50 refers to the concentration giving 50% cytotoxicity. As usually defined, the IC50 is the concentration needed to halve the response being measured. For orientation: inhibition means the relative decrease from the control value, in per cent.
